ChEMBL document CHEMBL1201861, “Genomics of Drug Sensitity in Cancer screening data, Wellcome Trust Sanger Institute”

Experiments:
Assay in all cases: cells
LB771-HNC = assay type: functional, cell-based, Homo sapiens; conditions: Homo sapiens, LB771-HNC
Description: SANGER: Inhibition of human LB771-HNC cell growth in a cell viability assay.

HD-MY-Z = assay type: functional, cell-based, Homo sapiens; conditions: Homo sapiens, HD-MY-Z
Description: SANGER: Inhibition of human HD-MY-Z cell growth in a cell viability assay.

TGBC24TKB = assay type: functional, cell-based, Homo sapiens; conditions: Homo sapiens, TGBC24TKB
Description: SANGER: Inhibition of human TGBC24TKB cell growth in a cell viability assay.

HC-1 = assay type: functional, cell-based, Homo sapiens; conditions: Homo sapiens, HC-1
Description: SANGER: Inhibition of human HC-1 cell growth in a cell viability assay.

MFM-223 = assay type: functional, cell-based, Homo sapiens; conditions: Homo sapiens, MFM-223
Description: SANGER: Inhibition of human MFM-223 cell growth in a cell viability assay.

HL-60 = assay type: functional, cell-based, Homo sapiens; conditions: Homo sapiens, HL-60
Description: SANGER: Inhibition of human HL-60 cell growth in a cell viability assay.

P30-OHK = assay type: functional, cell-based, Homo sapiens; conditions: Homo sapiens, P30-OHK
Description: SANGER: Inhibition of human P30-OHK cell growth in a cell viability assay.

SNB-75 = assay type: functional, cell-based, Homo sapiens; conditions: Homo sapiens, SNB-75
Description: SANGER: Inhibition of human SNB75 cell growth in a cell viability assay.

MOLT-16 = assay type: functional, cell-based, Homo sapiens; conditions: Homo sapiens, MOLT-16
Description: SANGER: Inhibition of human MOLT-16 cell growth in a cell viability assay.

NB69 = assay type: functional, cell-based, Homo sapiens; conditions: Homo sapiens, NB69
Description: SANGER: Inhibition of human NB69 cell growth in a cell viability assay.

DJM-1 = assay type: functional, cell-based, Homo sapiens; conditions: Homo sapiens, DJM-1
Description: SANGER: Inhibition of human DJM-1 cell growth in a cell viability assay.

ES4 = assay type: functional, cell-based, Homo sapiens; conditions: Homo sapiens, ES4
Description: SANGER: Inhibition of human ES4 cell growth in a cell viability assay.

HAL-01 = assay type: functional, cell-based, Homo sapiens; conditions: Homo sapiens, HAL-01
Description: SANGER: Inhibition of human HAL-01 cell growth in a cell viability assay.

RCC10RGB = assay type: functional, cell-based, Homo sapiens; conditions: Homo sapiens, RCC10RGB
Description: SANGER: Inhibition of human RCC10RGB cell growth in a cell viability assay.

L-363 = assay type: functional, cell-based, Homo sapiens; conditions: Homo sapiens, L-363
Description: SANGER: Inhibition of human L-363 cell growth in a cell viability assay.

ES7 = assay type: functional, cell-based, Homo sapiens; conditions: Homo sapiens, ES7
Description: SANGER: Inhibition of human ES7 cell growth in a cell viability assay.

NCI-H1838 = assay type: functional, cell-based, Homo sapiens; conditions: Homo sapiens, NCI-H1838
Description: SANGER: Inhibition of human NCI-H1838 cell growth in a cell viability assay.

BV-173 = assay type: functional, cell-based, Homo sapiens; conditions: Homo sapiens, BV-173
Description: SANGER: Inhibition of human BV-173 cell growth in a cell viability assay.

NKM-1 = assay type: functional, cell-based, Homo sapiens; conditions: Homo sapiens, NKM-1
Description: SANGER: Inhibition of human NKM-1 cell growth in a cell viability assay.

8-MG-BA = assay type: functional, cell-based, Homo sapiens; conditions: Homo sapiens, 8-MG-BA
Description: SANGER: Inhibition of human 8-MG-BA cell growth in a cell viability assay.

EKVX = assay type: functional, cell-based, Homo sapiens; conditions: Homo sapiens, EKVX
Description: SANGER: Inhibition of human EKVX cell growth in a cell viability assay.

U-87 MG = assay type: functional, cell-based, Homo sapiens, U-87MG ATCC; conditions: Homo sapiens, U-87 MG
Description: SANGER: Inhibition of human U-87-MG cell growth in a cell viability assay.

NCI-H446 = assay type: functional, cell-based, Homo sapiens; conditions: Homo sapiens, NCI-H446
Description: SANGER: Inhibition of human NCI-H446 cell growth in a cell viability assay.

SF-268 = assay type: functional, cell-based, Homo sapiens; conditions: Homo sapiens, SF-268
Description: SANGER: Inhibition of human SF268 cell growth in a cell viability assay.

SW872 = assay type: functional, cell-based, Homo sapiens; conditions: Homo sapiens, SW872
Description: SANGER: Inhibition of human SW872 cell growth in a cell viability assay.

ES5 = assay type: functional, cell-based, Homo sapiens; conditions: Homo sapiens, ES5
Description: SANGER: Inhibition of human ES5 cell growth in a cell viability assay.

ETK-1 = assay type: functional, cell-based, Homo sapiens; conditions: Homo sapiens, ETK-1
Description: SANGER: Inhibition of human ETK-1 cell growth in a cell viability assay.

MOLT-4 = assay type: functional, cell-based, Homo sapiens; conditions: Homo sapiens, MOLT-4
Description: SANGER: Inhibition of human MOLT-4 cell growth in a cell viability assay.

IST-SL1 = assay type: functional, cell-based, Homo sapiens; conditions: Homo sapiens, IST-SL1
Description: SANGER: Inhibition of human IST-SL1 cell growth in a cell viability assay.

NOS-1 = assay type: functional, cell-based, Homo sapiens; conditions: Homo sapiens, NOS-1
Description: SANGER: Inhibition of human NOS-1 cell growth in a cell viability assay.

LS-1034 = assay type: functional, cell-based, Homo sapiens; conditions: Homo sapiens, LS-1034
Description: SANGER: Inhibition of human LS-1034 cell growth in a cell viability assay.

TE-8 = assay type: functional, cell-based, Homo sapiens; conditions: Homo sapiens, TE-8
Description: SANGER: Inhibition of human TE-8 cell growth in a cell viability assay.

SW982 = assay type: functional, cell-based, Homo sapiens; conditions: Homo sapiens, SW982
Description: SANGER: Inhibition of human SW982 cell growth in a cell viability assay.

NB6 = assay type: functional, cell-based, Homo sapiens; conditions: Homo sapiens, NB6
Description: SANGER: Inhibition of human NB6 cell growth in a cell viability assay.

697 = assay type: functional, cell-based, Homo sapiens; conditions: Homo sapiens
Description: SANGER: Inhibition of human 697 cell growth in a cell viability assay.

EW-11 = assay type: functional, cell-based, Homo sapiens; conditions: Homo sapiens, EW-11
Description: SANGER: Inhibition of human EW-11 cell growth in a cell viability assay.

SH-4 = assay type: functional, cell-based, Homo sapiens; conditions: Homo sapiens, SH-4
Description: SANGER: Inhibition of human SH-4 cell growth in a cell viability assay.

SW 962 = assay type: functional, cell-based, Homo sapiens; conditions: Homo sapiens, SW 962
Description: SANGER: Inhibition of human SW962 cell growth in a cell viability assay.

MHH-PREB-1 = assay type: functional, cell-based, Homo sapiens; conditions: Homo sapiens, MHH-PREB-1
Description: SANGER: Inhibition of human MHH-PREB-1 cell growth in a cell viability assay.

TE-5 = assay type: functional, cell-based, Homo sapiens; conditions: Homo sapiens, TE-5
Description: SANGER: Inhibition of human TE-5 cell growth in a cell viability assay.

SCC-15 = assay type: functional, cell-based, Homo sapiens; conditions: Homo sapiens, SCC-15
Description: SANGER: Inhibition of human SCC-15 cell growth in a cell viability assay.

LB2241-RCC = assay type: functional, cell-based, Homo sapiens; conditions: Homo sapiens, LB2241-RCC
Description: SANGER: Inhibition of human LB2241-RCC cell growth in a cell viability assay.

MEG-01 = assay type: functional, cell-based, Homo sapiens; conditions: Homo sapiens, MEG-01
Description: SANGER: Inhibition of human MEG-01 cell growth in a cell viability assay.

Mo = assay type: functional, cell-based, Homo sapiens; conditions: Homo sapiens, Mo
Description: SANGER: Inhibition of human Mo-T cell growth in a cell viability assay.

MZ7-mel = assay type: functional, cell-based, Homo sapiens; conditions: Homo sapiens, MZ7-mel
Description: SANGER: Inhibition of human MZ7-mel cell growth in a cell viability assay.

LB831-BLC = assay type: functional, cell-based, Homo sapiens; conditions: Homo sapiens, LB831-BLC
Description: SANGER: Inhibition of human LB831-BLC cell growth in a cell viability assay.

GAK = assay type: functional, cell-based, Homo sapiens; conditions: Homo sapiens, GAK
Description: SANGER: Inhibition of human GAK cell growth in a cell viability assay.

A4-Fuk = assay type: functional, cell-based, Homo sapiens; conditions: Homo sapiens, A4-Fuk
Description: SANGER: Inhibition of human A4-Fuk cell growth in a cell viability assay.

## CC(=O)O[C@H]1C(=O)[C@@]2(C)[C@H]([C@H](OC(=O)c3ccccc3)[C@]3(O)C[C@H](OC(=O)[C@H](O)[C@@H](NC(=O)c4ccccc4)c4ccccc4)C(C)=C1C3(C)C)[C@]1(OC(C)=O)CO[C@@H]1C[C@@H]2O [PACLITAXEL]
LB771-HNC
  IC50: 25.3 nM
HD-MY-Z
  IC50: 11.6 nM
TGBC24TKB
  IC50: 7.52 nM
HC-1
  IC50: 7.21 nM
MFM-223
  IC50: > 102 nM
HL-60
  IC50: 9.66 nM
P30-OHK
  IC50: > 102 nM
SNB-75
  IC50: 15.4 nM
MOLT-16
  IC50: 21.5 nM
NB69
  IC50: > 102 nM
DJM-1
  IC50: 5.3 nM
ES4
  IC50: 4.49 nM
HAL-01
  IC50: > 102 nM
RCC10RGB
  IC50: > 102 nM
L-363
  IC50: 13.5 nM
ES7
  IC50: > 102 nM
NCI-H1838
  IC50: > 102 nM
BV-173
  IC50: 25.5 nM
NKM-1
  IC50: > 102 nM
8-MG-BA
  IC50: 7.96 nM
EKVX
  IC50: > 102 nM
U-87 MG
  IC50: > 102 nM
NCI-H446
  IC50: 21.1 nM
SF-268
  IC50: 11.5 nM
SW872
  IC50: 42.1 nM
ES5
  IC50: > 102 nM
ETK-1
  IC50: 1.52 nM
MOLT-4
  IC50: 1.49 nM
IST-SL1
  IC50: 30.4 nM
NOS-1
  IC50: 6.5 nM
LS-1034
  IC50: 80.4 nM
TE-8
  IC50: 1.17 nM
SW982
  IC50: 7.66 nM
NB6
  IC50: > 102 nM
697
  IC50: 1.5 nM
EW-11
  IC50: > 102 nM
SH-4
  IC50: 18.9 nM
SW 962
  IC50: 6.62 nM
MHH-PREB-1
  IC50: 21.9 nM
TE-5
  IC50: 15 nM
SCC-15
  IC50: > 102 nM
LB2241-RCC
  IC50: > 102 nM
MEG-01
  IC50: 29.8 nM
Mo
  IC50: > 102 nM
MZ7-mel
  IC50: 40.4 nM
LB831-BLC
  IC50: 24.8 nM
GAK
  IC50: 102 nM
A4-Fuk
  IC50: 6.11 nM

## COc1cc(-c2nn([C@H]3CC[C@H](N4CCN(C(C)=O)CC4)CC3)c3ncnc(N)c23)ccc1NC(=O)c1cc2ccccc2n1C
LB771-HNC
  IC50: > 5120 nM
HD-MY-Z
  IC50: 4880 nM
TGBC24TKB
  IC50: 808 nM
HC-1
  IC50: 3190 nM
MFM-223
  IC50: > 5120 nM
HL-60
  IC50: > 5120 nM
P30-OHK
  IC50: > 5120 nM
SNB-75
  IC50: 340 nM
MOLT-16
  IC50: > 5120 nM
NB69
  IC50: 3290 nM
DJM-1
  IC50: > 5120 nM
ES4
  IC50: > 5120 nM
HAL-01
  IC50: 3080 nM
RCC10RGB
  IC50: > 5120 nM
L-363
  IC50: > 5120 nM
ES7
  IC50: > 5120 nM
NCI-H1838
  IC50: > 5120 nM
BV-173
  IC50: 345 nM
NKM-1
  IC50: > 5120 nM
8-MG-BA
  IC50: 4610 nM
EKVX
  IC50: > 5120 nM
U-87 MG
  IC50: > 5120 nM
NCI-H446
  IC50: > 5120 nM
SF-268
  IC50: 3960 nM
SW872
  IC50: 452 nM
ES5
  IC50: > 5120 nM
ETK-1
  IC50: 349 nM
MOLT-4
  IC50: > 5120 nM
IST-SL1
  IC50: > 5120 nM
NOS-1
  IC50: 196 nM
LS-1034
  IC50: > 5120 nM
TE-8
  IC50: 242 nM
SW982
  IC50: 387 nM
NB6
  IC50: > 5120 nM
697
  IC50: 1730 nM
EW-11
  IC50: > 5120 nM
SH-4
  IC50: 913 nM
SW 962
  IC50: > 5120 nM
MHH-PREB-1
  IC50: 4850 nM
TE-5
  IC50: > 5120 nM
SCC-15
  IC50: > 5120 nM
LB2241-RCC
  IC50: > 5120 nM
MEG-01
  IC50: 169 nM
Mo
  IC50: > 5120 nM
MZ7-mel
  IC50: > 5120 nM
LB831-BLC
  IC50: 593 nM
GAK
  IC50: > 5120 nM
A4-Fuk
  IC50: > 5120 nM

## CCN(CC)CCNC(=O)c1c(C)[nH]c(/C=C2\C(=O)Nc3ccc(F)cc32)c1C [SUNITINIB]
LB771-HNC
  IC50: […]
HD-MY-Z
  IC50: 5170 nM
TGBC24TKB
  IC50: […]
HC-1
  IC50: 5430 nM
MFM-223
  IC50: […]
HL-60
  IC50: 4210 nM
P30-OHK
  IC50: […]
SNB-75
  IC50: […]
MOLT-16
  IC50: 631 nM
NB69
  IC50: […]
DJM-1
  IC50: […]
ES4
  IC50: 2810 nM
HAL-01
  IC50: 2060 nM
RCC10RGB
  IC50: […]
L-363
  IC50: 4810 nM
ES7
  IC50: […]
NCI-H1838
  IC50: […]
BV-173
  IC50: 2340 nM
NKM-1
  IC50: 98.5 nM
8-MG-BA
  IC50: 6520 nM
EKVX
  IC50: […]
U-87 MG
  IC50: […]
NCI-H446
  IC50: […]
SF-268
  IC50: 3330 nM
SW872
  IC50: […]
ES5
  IC50: […]
ETK-1
  IC50: 1290 nM
MOLT-4
  IC50: 3400 nM
IST-SL1
  IC50: […]
NOS-1
  IC50: 15.3 nM
LS-1034
  IC50: […]
TE-8
  IC50: 2370 nM
SW982
  IC50: 4550 nM
NB6
  IC50: […]
697
  IC50: 614 nM
EW-11
  IC50: […]
SH-4
  IC50: 5480 nM
SW 962
  IC50: […]
MHH-PREB-1
  IC50: 5320 nM
TE-5
  IC50: […]
SCC-15
  IC50: […]
LB2241-RCC
  IC50: […]
MEG-01
  IC50: 1840 nM
Mo
  IC50: […]
MZ7-mel
  IC50: […]
LB831-BLC
  IC50: […]
GAK
  IC50: […]
A4-Fuk
  IC50: 1340 nM
